The conditions of this experiment: sheep, intranasal 2.0 IU/kg insulin, LPG versus LPC.

Procedure: The sheep were divided into 4 groups of 5 animals each. Group 1 received 2.0 IU/kg insulin together with 2.0 mg/kg SMS 45/25 microspheres (Pharmacia) and 0.2 mg/kg LPC (Formulation 1) intranasally in the form of a lyophilised powder. A sheep of 50 kg thus received 100 IU of insulin together with 100 mg SMS 45/25 microspheres and 10.0 mg LPC. Group 2 received 2.0 IU/kg insulin together with 2.0 mg/kg SMS 45/25 microspheres and 0.2 mg/kg LPG Formulation 2) intranasally in the form of a lyophilised powder. A sheep of 50 kg thus received 100 IU of insulin together with 100 mg SMS 45/25 microspheres and 10.0 mg LPG. Group 3 received 2.0 IU/kg insulin together with 0.02 mg/kg LPC (Formulation 3) intranasally in the form of a solution at 0.01 ml/kg. A sheep of 50 kg thus received 100 IU of insulin together with 1.0 mg LPC in a volume of 0.5 ml. Group 4 received 2.0 IU/kg insulin together with 0.02 mg/kg LPG (Formulation 4) intranasally in the form of a solution at 0.01 ml/kg. A sheep of 50 kg thus received 100 IU of insulin together with 1.0 mg LPG in a volume of 0.5 ml. […]
Sedation/Blood Sampling: For the intranasal studies, the sheep were sedated by use of an i.v. dose of ketamine hydrochloride (Ketalar (Regd. T.M.), 100 mg/ml injection) at 2.25 mg/kg. […] Each blood sample was divided into two parts and analysed as in Example 1.

As for L-α-lysophosphatidyl-DL-glycerol [LPG], the Plasma glucose levels result is recorded as “lower (i.e. better) with LPG”.

The values above are taken from patent US5725871A, “Drug delivery compositions comprising lysophosphoglycerolipid” (Danbiosyst UK Limited, priority 1989, dated 1998).
